Test results reported in patent US20260285897A1, “Neurosteroids and Prodrugs Thereof” (Emory University, priority 2023, published 2026).
pEC50: −log10 of the molar value.

Key:
GABAA α1β2γ2 = GABAA α1β2γ2 (Homo sapiens, UniProt P14867+P47870); experiment: GABAA electrophysiology, PAM mode, SyncroPatch automated patch clamp; type: cell-based; conditions: for Emax: read-out: GABAA α1β2γ2 Maximum Potentiation
Experimental: (§1) The SyncroPatch assay is performed at room temperature. A fast application protocol is used, in which the ligand is rapidly applied and then removed from the cell. To test for PAM mode, the agonist (GABA EC20) is applied three times as a control and to show reproducibility, followed by a minimum 2-minute pre-incubation of client compound and then re-application of agonist (GABA EC20) in the presence of client compound. Finally, a saturating concentration of agonist is applied. A steady-state voltage pulse at −80 mV is applied throughout the assay. Compounds are prepared as 10 mM DMSO stocks.
(§2) Automated patch clamp-recordings are performed using the SyncroPatch 384i. The voltage protocol generation and data collection are performed with Patch Controller 384 V2.2.1 and Data Controller V2.3.0. The PAM activity is calculated using the following equation, [(Icomp/Ireference)−1], where Icomp is the current amplitude in the presence of the compound and Ireference is the current amplitude in the presence of GABA alone. This builds an activation concentration-response curve (CRC), where <0.2 represents no PAM activity and >0.2 represents PAM activity. If a “bell-shape curve” is observed at the higher concentrations, showing a reduction in activity in comparison to previous concentrations, then to allow for a more accurate curve fit, these concentrations are removed from the graphs where necessary and noted in the results table.

GABAA α4β3δ = GABAA α4β3δ (Homo sapiens, UniProt P28472+P48169); experiment: as above; type: cell-based; conditions: for Emax: read-out: GABAA α4β3δ Maximum Potentiation; for selectivity for GABAA receptor containing the delta (δ) subunit compared to a GABAA receptor without it: α4β3δ vs α1β2γ2, in words
Experimental: as §1, §2

Plasma stability assay = type: in vitro ADME; conditions: human plasma, 37° C., read-out: Human plasma t1/2
Experimental: (§3) 3 μM test compound was incubated in Human or Mouse plasma (BioIVT) at 37° C. with aliquots (100 μL) removed at 0, 15, 30, 60, 120, and 240 minutes. Enzymatic activity was quenched at each time point with the addition of 200 μL of acetonitrile containing 2 μM internal standard (d5-7-ethoxy coumarin), immediately vortexed and centrifuged at 15,000 rpm for 25 min at 4° C. Supernatants were transferred to autosampler vials for LC-MS/MS analysis. LC-MS/MS analysis was performed using Agilent Infinity II 1260 HPLC coupled to a G6460C QQQ MS. Half-lives were determined by plotting ln of % test compound remaining versus time and performing linear regression to determine the slope. Slope=−k and t½=0.693/k for first order kinetics.

Aqueous solubility = conditions: water
[1] = Aqueous stability assay in PBS (DPBS), HPLC; type: physicochemical; conditions: 1 mg/mL, room temperature, parent remaining at 2 hr, read-out: PBS (% REM at 2 hr)
Experimental: Aqueous stability experiments were performed on an Agilent 1100 HPLC equipped with an Agilent 1200 autosampler. HPLC grade solvents were exclusively used during analysis, with acetonitrile being purchased from Sigma Aldrich, and water and formic acid provided by Fisher Scientific. Sample solutions were prepared in 2.0 mL large opening RAM™ vials from Chemglass using DPBS as the aqueous medium.
Tested compounds were dissolved in DPBS at a standard concentration of 1 mg/mL. All mixtures were then sonicated for 5 min or stirred until complete dissolution was achieved. Any precipitate observed in sample solutions was filtered with a PTFE syringe filter prior to analysis. Immediately after sample preparation, injection by the HPLC autosampler was performed, which was recorded as the initial time point (t=0 min). Samples were then kept in the autosampler at room temperature and injected at designated intervals without additional filtration or sample modification. Next, the area of the parent peak in each chromatogram was determined by automated integration in the Agilent ChemStation software. Pseudo first-order half-lives were then ascertained by calculating the percent of the parent compound remaining after each time point, Plots of time (x-axis) vs. the natural logarithm of percent parent remaining (y-axis) were subsequently constructed to determine the slope. Finally, the aqueous stability was evaluated using the following equation: […]
The HPLC conditions were as follows: injection volume, 1 μL; column temperature: 40° C.; detector: 254 nm; stationary phase: Zorbax Eclipse XDB-C18 (4.6×150 mm, 5 μm); flow rate: 1 mL/min; mobile phase: 80-95% acetonitrile in H2O (0.1% formic acid).

[2] = Microsomal stability assay; type: in vitro ADME; conditions: Human Liver Microsomes, 37° C., unit in cell hr (head: min), read-out: HLM t1/2
Experimental: as §3, with “Liver Microsomes (Xenotech)” for “or Mouse plasma (BioIVT)”, “[…])” for “μL)”, “0, 5, 10,” for “0,”, “15,” for “15, 30, 60, 120,”, “30” for “240”

Chain of GABAA α4β3δ (P48169 36-554): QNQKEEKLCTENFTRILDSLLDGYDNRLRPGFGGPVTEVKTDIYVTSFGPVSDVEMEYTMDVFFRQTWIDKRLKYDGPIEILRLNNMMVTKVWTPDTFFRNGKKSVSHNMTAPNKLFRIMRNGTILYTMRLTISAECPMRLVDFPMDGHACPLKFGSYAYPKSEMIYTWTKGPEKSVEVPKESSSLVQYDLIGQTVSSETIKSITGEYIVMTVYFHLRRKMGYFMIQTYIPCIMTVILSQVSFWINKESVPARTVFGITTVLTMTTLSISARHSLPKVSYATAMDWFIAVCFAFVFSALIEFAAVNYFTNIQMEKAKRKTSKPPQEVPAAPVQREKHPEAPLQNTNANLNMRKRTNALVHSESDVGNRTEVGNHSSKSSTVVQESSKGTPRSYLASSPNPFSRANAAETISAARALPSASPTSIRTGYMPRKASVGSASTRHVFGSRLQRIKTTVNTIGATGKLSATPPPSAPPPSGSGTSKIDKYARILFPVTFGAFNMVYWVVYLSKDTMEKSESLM
Chain of GABAA α4β3δ (P28472 26-473): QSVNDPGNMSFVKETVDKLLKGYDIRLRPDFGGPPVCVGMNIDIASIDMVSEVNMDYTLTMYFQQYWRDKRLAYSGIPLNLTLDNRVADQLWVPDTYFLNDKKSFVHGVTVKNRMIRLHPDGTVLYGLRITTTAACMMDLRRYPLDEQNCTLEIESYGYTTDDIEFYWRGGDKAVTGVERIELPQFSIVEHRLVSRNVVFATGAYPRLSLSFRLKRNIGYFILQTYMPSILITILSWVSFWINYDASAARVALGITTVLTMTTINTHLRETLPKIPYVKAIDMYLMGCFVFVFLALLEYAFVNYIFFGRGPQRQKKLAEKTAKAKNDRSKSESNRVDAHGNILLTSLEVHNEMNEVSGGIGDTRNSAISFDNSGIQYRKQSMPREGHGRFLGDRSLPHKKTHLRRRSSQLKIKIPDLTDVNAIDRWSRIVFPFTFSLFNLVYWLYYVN
Chain of GABAA α4β3δ (O14764 17-452 partner limits assumed): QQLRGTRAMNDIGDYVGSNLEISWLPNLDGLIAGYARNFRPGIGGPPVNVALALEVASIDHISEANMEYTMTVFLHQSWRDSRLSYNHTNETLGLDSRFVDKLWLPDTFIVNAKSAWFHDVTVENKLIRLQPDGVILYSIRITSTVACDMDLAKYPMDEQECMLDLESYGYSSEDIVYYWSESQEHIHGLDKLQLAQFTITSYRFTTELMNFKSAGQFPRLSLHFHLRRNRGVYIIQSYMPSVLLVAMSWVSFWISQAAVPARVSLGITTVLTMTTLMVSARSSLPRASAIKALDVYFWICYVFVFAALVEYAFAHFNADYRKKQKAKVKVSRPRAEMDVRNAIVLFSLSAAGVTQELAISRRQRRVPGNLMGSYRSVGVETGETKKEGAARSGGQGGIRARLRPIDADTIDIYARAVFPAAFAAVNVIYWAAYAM
Chain of GABAA α1β2γ2 (P14867 28-456): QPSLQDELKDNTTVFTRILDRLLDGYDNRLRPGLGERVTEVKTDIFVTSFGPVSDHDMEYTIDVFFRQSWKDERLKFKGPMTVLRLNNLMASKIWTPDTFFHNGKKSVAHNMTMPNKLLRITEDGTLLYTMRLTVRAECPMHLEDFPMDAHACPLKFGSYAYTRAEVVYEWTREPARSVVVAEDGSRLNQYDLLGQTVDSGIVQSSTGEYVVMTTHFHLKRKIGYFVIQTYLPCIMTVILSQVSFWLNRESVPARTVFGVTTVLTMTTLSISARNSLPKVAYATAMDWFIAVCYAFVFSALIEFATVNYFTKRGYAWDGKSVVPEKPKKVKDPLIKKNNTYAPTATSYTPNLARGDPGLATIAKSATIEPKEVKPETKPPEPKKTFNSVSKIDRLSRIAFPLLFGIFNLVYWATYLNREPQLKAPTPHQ
Chain of GABAA α1β2γ2 (P47870 25-512 limits assumed): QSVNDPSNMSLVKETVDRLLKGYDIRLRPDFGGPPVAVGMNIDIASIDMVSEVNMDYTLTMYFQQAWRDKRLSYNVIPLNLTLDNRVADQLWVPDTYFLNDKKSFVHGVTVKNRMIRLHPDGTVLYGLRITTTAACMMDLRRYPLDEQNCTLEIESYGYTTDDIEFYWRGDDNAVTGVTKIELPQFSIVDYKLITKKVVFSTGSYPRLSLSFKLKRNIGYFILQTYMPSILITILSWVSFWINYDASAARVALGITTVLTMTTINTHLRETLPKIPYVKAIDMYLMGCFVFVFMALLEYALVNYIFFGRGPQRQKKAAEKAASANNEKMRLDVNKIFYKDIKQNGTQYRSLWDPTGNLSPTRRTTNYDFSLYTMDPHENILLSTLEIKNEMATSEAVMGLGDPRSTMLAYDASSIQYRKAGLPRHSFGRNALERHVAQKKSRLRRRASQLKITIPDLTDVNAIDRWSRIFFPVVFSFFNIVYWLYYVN
Chain of GABAA α1β2γ2 (P18507 40-475 partner): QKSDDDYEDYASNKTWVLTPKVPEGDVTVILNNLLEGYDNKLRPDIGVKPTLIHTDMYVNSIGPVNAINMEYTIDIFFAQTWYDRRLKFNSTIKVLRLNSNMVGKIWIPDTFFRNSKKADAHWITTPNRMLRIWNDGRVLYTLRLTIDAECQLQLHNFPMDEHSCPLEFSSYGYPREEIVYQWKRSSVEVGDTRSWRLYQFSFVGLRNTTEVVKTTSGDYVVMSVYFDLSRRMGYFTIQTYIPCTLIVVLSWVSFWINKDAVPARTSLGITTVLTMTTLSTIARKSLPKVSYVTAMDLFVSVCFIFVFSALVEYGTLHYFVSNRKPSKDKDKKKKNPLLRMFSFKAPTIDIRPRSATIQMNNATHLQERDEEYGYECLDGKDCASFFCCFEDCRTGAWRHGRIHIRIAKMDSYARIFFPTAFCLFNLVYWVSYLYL

Compound: C/C(=N\O)[C@H]1CC[C@H]2[C@@H]3CC[C@@H]4C[C@](C)(O)CC[C@@H]4[C@H]3CC[C@]12C [LEH- NEURO- 007 (30), (E)-1-((3R,5R,8R,9R,10S,13S,14S,17S)-3-hydroxy-3,13-dimethylhexadecahydro-1H-cyclopenta[a]phenanthren-17-yl)ethan-1-one oxime]
- pEC50 (GABAA α1β2γ2): 6.16
- Emax (GABAA α1β2γ2): 121%
- pEC50 (GABAA α4β3δ): 6.42
- Emax (GABAA α4β3δ): 510%
- selectivity for GABAA receptor containing the delta (δ) subunit compared to a GABAA receptor without it (GABAA α4β3δ): selectively potentiate
- half-life at 3 µM (Plasma stability assay; unit in cell hr (head: min)): > 240 min

Compound: CNCCN(C(=O)O/N=C(\C)[C@H]1CC[C@H]2[C@@H]3CCC4C[C@](C)(O)CC[C@]4(C)[C@H]3CC[C@]12C)C(C)C.Cl (stereo partly drawn) [GP-GAN- 004 (20d), (E)-1-((3R,8R,9S,10S,13S,14S,17S)-3-hydroxy-3,10,13-trimethylhexadecahydro-1H-cyclopenta[a]phenanthren-17-yl)ethan-1-one O-(isopropyl(2-(methylamino)ethyl)carbamoyl) oxime hydrochloride]
- solubility (Aqueous solubility): > 750 µM
- half-life at 3 µM (Plasma stability assay): 28 min
- remaining at 2 h [1]: 52%

Compound: CC(=O)[C@H]1CC[C@H]2[C@@H]3CC[C@H]4C[C@](C)(O)CC[C@]4(C)[C@H]3CC[C@]12C [Ganaxalone, Ganaxolone, reference compound]
- pEC50 (GABAA α1β2γ2): 6.27
- pEC50 (GABAA α4β3δ): 6.06

Compound: CNCCN(C(=O)O/N=C(\C)[C@H]1CC[C@H]2[C@@H]3CCC4C[C@](C)(O)CC[C@]4(C)[C@H]3CC[C@]12C)C1CCC1.Cl (stereo partly drawn) [GP-GAN- 005 (20c), (E)-1-((3R,8R,9S,10S,13S,14S,17S)-3-hydroxy-3,10,13-trimethylhexadecahydro-1H-cyclopenta[a]phenanthren-17-yl)ethan-1-one O-(cyclobutyl(2-(methylamino)ethyl)carbamoyl) oxime hydrochloride]
- solubility (Aqueous solubility): > 750 µM
- half-life at 3 µM (Plasma stability assay): 39 min
- remaining at 2 h [1]: 43%

Compound: C/C(=N\O)[C@H]1CC[C@H]2[C@@H]3CC[C@H]4C[C@](C)(O)CC[C@]4(C)[C@H]3CC[C@]12C [GP-GAN- 001 (10), (E)-1-((3R,8R,9S,10S,13S,14S,17S)-3-hydroxy-3,10,13-trimethylhexadecahydro-1H-cyclopenta[a]phenanthren-17-yl)ethan-1-one oxime]
- pEC50 (GABAA α1β2γ2): 5.79
- Emax (GABAA α1β2γ2): 133%
- pEC50 (GABAA α4β3δ): 6.00
- Emax (GABAA α4β3δ): 533%
- half-life at 3 µM [2]: > 120 min
- half-life at 3 µM (Plasma stability assay; unit in cell hr (head: min)): > 240 min

Compound: C/C(=N\OCOP(=O)(O)O)[C@H]1CC[C@H]2[C@@H]3CCC4C[C@](C)(O)CC[C@]4(C)[C@H]3CC[C@]12C (stereo partly drawn) [GP-GAN- 007 (22), 1,3-Dihydroxy-2-(hydroxymethyl)propan-2-aminium ((((E)-1-((3R,8R,9S,10S,13S,14S,17S)-3-hydroxy-3,10,13-trimethylhexadecahydro-1H-cyclopenta[a]phenanthren-17-yl)ethylidene)amino)oxy)methyl hydrogen phosphate]
- solubility (Aqueous solubility): > 1000 µM

Compound: CNCCN(C)C(=O)O/N=C(\C)[C@H]1CC[C@H]2[C@@H]3CCC4C[C@](C)(O)CC[C@]4(C)[C@H]3CC[C@]12C.Cl (stereo partly drawn) [GP-GAN- 002 (20a), (E)-1-((3R,8R,9S,10S,13S,14S,17S)-3-hydroxy-3,10,13-trimethylhexadecahydro-1H-cyclopenta[a]phenanthren-17-yl)ethan-1-one O-(methyl(2-(methylamino)ethyl)carbamoyl) oxime hydrochloride]
- solubility (Aqueous solubility): > 750 µM
- half-life at 3 µM (Plasma stability assay): 55 min
- remaining at 2 h [1]: 66%

Compound: C/C(=N\O)[C@H]1CC[C@H]2[C@@H]3CCC4C[C@](C)(O)CC[C@]4(C)[C@H]3CC[C@]12C (stereo partly drawn) [compound 10]
- selectivity for GABAA receptor containing the delta (δ) subunit compared to a GABAA receptor without it (GABAA α4β3δ): selectively potentiate

Compound: C/C(=N\OC(=O)N(C)C[C@@H]1CCCN1)[C@H]1CC[C@H]2[C@@H]3CCC4C[C@](C)(O)CC[C@]4(C)[C@H]3CC[C@]12C.Cl (stereo partly drawn) [GP-GAN- 003 (20b), (E)-1-((3R,8R,9S,10S,13S,14S,17S)-3-hydroxy-3,10,13-trimethylhexadecahydro-1H-cyclopenta[a]phenanthren-17-yl)ethan-1-one O-(methyl(((S)-pyrrolidin-2-yl)methyl)carbamoyl) oxime hydrochloride]
- solubility (Aqueous solubility): > 750 µM
- half-life at 3 µM (Plasma stability assay): 6 min
- remaining at 2 h [1]: 10%

Compound: C/C(=N\O)[C@@]1(F)CC[C@H]2[C@@H]3CC[C@H]4C[C@](C)(O)CC[C@]4(C)[C@H]3CC[C@@]21C [GP-GAN- 006 (15), (E)-1-((3R,8R,9S,10S,13S,14S,17R)-17-fluoro-3-hydroxy-3,10,13-trimethylhexadecahydro-1H-cyclopenta[a]phenanthren-17-yl)ethan-1-one oxime]
- half-life at 3 µM (Plasma stability assay): 3 min
- remaining at 2 h [1]: 61%
